Inconclusive results are not listed.
Test system: CD8F1 mice, subcutaneous mammary adenocarcinoma, T/C%
Experiment: NCI In Vivo Anticancer Drug Screen. Data for tumor model Mammary Adenocarcinoma CD8F1 (subcutaneous) in CD8F1
Settings: higher = larger tumour
How it was run: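 Mice carrying transplanted tumors received test compound, and survival or tumor size was recorded. Each value is the treated-group measurement divided by the corresponding measurement in vehicle-dosed controls.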

[1] = endpoint: median tumor weight change, dose: 500.0 mg/kg/injection, schedule: Q01DX001 (ip), vehicle: Klucel (hydroxypropylcellulose) (HPC)
[2] = endpoint: median tumor weight (est.), dose: 25.0 mg/kg/injection, schedule: Q07DX005 (ip), vehicle: Klucel (hydroxypropylcellulose) (HPC)
[3] = endpoint: median tumor weight (est.), dose: 50.0 mg/kg/injection, schedule: Q07DX005 (ip), vehicle: Klucel (hydroxypropylcellulose) (HPC)
[4] = endpoint: median tumor weight (est.), dose: 200.0 mg/kg/injection, schedule: Q07DX005 (ip), vehicle: Klucel (hydroxypropylcellulose) (HPC)
[5] = endpoint: median tumor weight (est.), dose: 400.0 mg/kg/injection, schedule: Q07DX005 (ip), vehicle: Klucel (hydroxypropylcellulose) (HPC)
[6] = endpoint: median tumor weight (est.), dose: 100.0 mg/kg/injection, schedule: Q07DX005 (ip), vehicle: saline
[7] = endpoint: median tumor weight (est.), dose: 200.0 mg/kg/injection, schedule: Q07DX005 (ip), vehicle: saline
[8] = endpoint: median tumor weight (est.), dose: 400.0 mg/kg/injection, schedule: Q07DX005 (ip), vehicle: saline
[9] = endpoint: median tumor weight (est.), dose: 800.0 mg/kg/injection, schedule: Q07DX005 (ip), vehicle: saline

For `CC(C)NC(=O)N(CCCCBr)N=O`, the T/C (endpoint: median tumor weight change, dose: 49.37 mg/kg/injection, schedule: Q01DX001 (ip), vehicle: Klucel (hydroxypropylcellulose) (HPC)) was 43 % of control, the T/C (endpoint: median tumor weight change, dose: 62.0 mg/kg/injection, schedule: Q01DX001 (ip), vehicle: Klucel (hydroxypropylcellulose) (HPC)) was 42 % of control and the T/C (endpoint: median tumor weight change, dose: 98.75 mg/kg/injection, schedule: Q01DX001 (ip), vehicle: Klucel (hydroxypropylcellulose) (HPC)) was 34 % of control. For the same compound, the T/C (endpoint: median tumor weight change, dose: 197.5 mg/kg/injection, schedule: Q01DX001 (ip), vehicle: Klucel (hydroxypropylcellulose) (HPC)) was -13 % of control, the T/C (endpoint: median tumor weight change, dose: 395.0 mg/kg/injection, schedule: Q01DX001 (ip), vehicle: Klucel (hydroxypropylcellulose) (HPC)) was -66 % of control and the T/C [1] was -41 % of control.
With `O=S(=O)(SC(S(=O)(=O)c1ccccc1)S(=O)(=O)c1ccccc1)c1ccccc1` the T/C [2] was 55 % of control, the T/C [3] was 90 % of control and the T/C [4] was 112 % of control. The T/C [5] was 70 % of control.
`CNC(=O)OCc1c(COC(=O)NC)c(-c2ccc(F)cc2)n2c1CCC2` was tested, and the T/C (endpoint: median tumor weight (est.), dose: 3.12 mg/kg/injection, schedule: Q07DX005 (ip), vehicle: Klucel (hydroxypropylcellulose) (HPC)) was 49 % of control, the T/C (endpoint: median tumor weight (est.), dose: 6.25 mg/kg/injection, schedule: Q07DX005 (ip), vehicle: Klucel (hydroxypropylcellulose) (HPC)) was 63 % of control and the T/C (endpoint: median tumor weight (est.), dose: 12.5 mg/kg/injection, schedule: Q07DX005 (ip), vehicle: Klucel (hydroxypropylcellulose) (HPC)) was 84 % of control. For the same compound, the T/C [2] was 48 % of control and the T/C [3] was 39 % of control.
In the case of `CC12C(=O)C=CCC1=CCC1C2CCC2(O)C(=O)OC3(C)C4CC5(C)C(COC16OC23C5C6=O)C(=O)O4` (stereo unspecified), the T/C (endpoint: median tumor weight change, dose: 250.0 mg/kg/injection, schedule: Q01DX001 (ip), vehicle: Klucel (hydroxypropylcellulose) (HPC)) is reported as 96 % of control and the T/C [1] is reported as 35 % of control.
For `O=C1OC(C(O)CO)C(O)=C1O` (stereo unspecified), the T/C [6] was 70 % of control, the T/C [7] was 28 % of control and the T/C [8] was 110 % of control. For the same compound, the T/C [9] was 61 % of control.
For `C[C@@H](CN1CC(=O)NC(=O)C1)N1CC(=O)NC(=O)C1`, the T/C (endpoint: median tumor weight (est.), dose: 25.0 mg/kg/injection, schedule: Q07DX005 (ip), vehicle: saline) was 75 % of control, the T/C (endpoint: median tumor weight (est.), dose: 50.0 mg/kg/injection, schedule: Q07DX005 (ip), vehicle: saline) was 39 % of control and the T/C (endpoint: median tumor weight (est.), dose: 100.0 mg/kg/injection, schedule: Q07DX005 (ip), vehicle: Klucel (hydroxypropylcellulose) (HPC)) was 52 % of control. The T/C [6] was 85 % of control, the T/C [4] was 107 % of control and the T/C [7] was 46 % of control. The T/C [5] was 37 % of control, the T/C [8] was 45 % of control and the T/C (endpoint: median tumor weight (est.), dose: 800.0 mg/kg/injection, schedule: Q07DX005 (ip), vehicle: Klucel (hydroxypropylcellulose) (HPC)) was 10 % of control. The T/C [9] was 13 % of control.
`OCC12COCN1COC2` was tested, and the T/C (endpoint: median tumor weight change, dose: 50.0 mg/kg/injection, schedule: Q01DX001 (ip), vehicle: saline) was 100 % of control, the T/C (endpoint: median tumor weight change, dose: 100.0 mg/kg/injection, schedule: Q01DX001 (ip), vehicle: saline) was 107 % of control and the T/C (endpoint: median tumor weight change, dose: 200.0 mg/kg/injection, schedule: Q01DX001 (ip), vehicle: saline) was 71 % of control. For the same compound, the T/C (endpoint: median tumor weight change, dose: 400.0 mg/kg/injection, schedule: Q01DX001 (ip), vehicle: saline) was 87 % of control and the T/C (endpoint: median tumor weight change, dose: 800.0 mg/kg/injection, schedule: Q01DX001 (ip), vehicle: saline) was 82 % of control.
In the case of `O=C1c2cccc(NCCCNCCO)c2C(=O)c2cccc(NCCCNCCO)c21`, the T/C (endpoint: median tumor weight change, dose: 6.25 mg/kg/injection, schedule: Q01DX001 (ip), vehicle: acid diluted with saline) is reported as 36 % of control, the T/C (endpoint: median tumor weight change, dose: 12.5 mg/kg/injection, schedule: Q01DX001 (ip), vehicle: acid diluted with saline) is reported as 47 % of control and the T/C (endpoint: median tumor weight change, dose: 25.0 mg/kg/injection, schedule: Q01DX001 (ip), vehicle: acid diluted with saline) is reported as 29 % of control. The T/C (endpoint: median tumor weight change, dose: 50.0 mg/kg/injection, schedule: Q01DX001 (ip), vehicle: acid diluted with saline) was 23 % of control and the T/C (endpoint: median tumor weight change, dose: 100.0 mg/kg/injection, schedule: Q01DX001 (ip), vehicle: acid diluted with saline) was 54 % of control.

Source: PubChem BioAssay AID220 (DTP/NCI, 2004)
